The text below walks through data of patent US11712429B2, “Low eructation composition and methods for treating and/or preventing cardiovascular disease in a subject with fish allergy/hypersensitivity” (Amarin Pharmaceuticals Ireland Limited, priority 2010, dated 2023).

In this assay the test system is subjects with age-associated impairment (AAMI). The assay is described as follows: CDR computerized cognitive test battery, 6-week placebo-controlled dose-ranging study. It counts as in vivo, human. The protocol: A single center, double blind, randomized, parallel-group, placebo controlled dose-ranging study of E-EPA in subjects with age-associated impairment (AAMI) was performed. The primary goal was to examine the effect of ethyl-EPA versus placebo on cognitive performance in subjects with AAMI as measure by the power of attention tasks in a computerized test batter over a period of 6 weeks. Secondary objectives were to:
(1) examine the effect of E-EPA versus placebo over 6 weeks on the following tests in the computerized cognitive battery: Continuity of attention tasks; Quality of working memory tasks; Quality of episodic memory tasks; Speed of attention tasks;
The study plan was to enroll 96 subjects who would be randomly allocated to 1 of 4 possible treatment groups for 6 weeks, in a balanced block design (24 subjects per group), as follows: • 1. 1 g ethyl-EPA daily • 2. 2 g ethyl-EPA daily • 3. 4 g ethyl-EPA daily • 4. Placebo (paraffin oil) daily
Ethyl-EPA was provided as 500 mg soft gel capsules providing ethyl-EPA of >96% purity, 0.25% to 0.38% by weight ethyl octadecatetraenoate, 0.075% to 0.15% by weight ethyl nonaecapentaenoate, 0.25% to 0.35% by weight ethyl arachidonate, 0.3% to 0.4% by weight ethyl eicosatetraenoate (ETA-E), 0.075% to 0.15% ethyl heneicosapentaenoate and 0.2% dl-[…]-tocopherol as an antioxidant. Matching placebo capsules contained […] of liquid paraffin and 0.2% dl-[…]-tocopherol. The placebo group was further randomized so that an equal number of subjects (8) was allocated 1 g, 2 g or 4 g placebo. Study drug was taken twice daily (BID) as a divided dose (e.g. for the 1 g dose, 500 mg was given in the morning and a further 500 mg was given in the evening) with a light snack or meal.
The study consisted of a screening visit, a training visit and 4 study visits. At the screening visit, subjects' eligibility was determined through cognitive tests (verbal paired associated learning [PAL] subscale, vocabulary subtest, Memory Assessment Clinics Questionnaire [MAC-Q], mini mental state evaluation [MMSE] and MINI [mini international neuropsychiatirc interview; sections 1 and 2 of Diagnostic and Statistical Manual of Mental Disorders, 4th Ed. (DSM-IV) plus dysthymia]), haematology, clinical chemistry and 12-lead electrocardiogram (ECG). At the training visit, subjects were shown how to use the CDR computerized system. Subjects took study drug for 6 weeks and on Days 0, 14, 28 and 42, subjects underwent the CDR cognitive test battery.
A selection of tasks from the CDR computerized cognitive assessment system were administered (Appendix 8 of protocol) at Visit 2 (training visit), Visit 3 (baseline), Visit 4 (Day 14), Visit 5 (Day 28) and Visit 6 (Day 42). Parallel forms of the tests were presented at each testing session. All tasks were computer-controlled, the information presented on high resolution monitors, and the responses recorded via a response model containing 2 buttons 1 marked ‘no’ the other ‘yes’. Five CDR composite scores were used as the primary/secondary outcome variables.
Summary statistics were provided for the ITT and Study PP Populations separately for all composite scores, major and supportive variables. Summary statistics were performed for both the unadjusted and difference from baseline data (i.e. the difference from the time matched pre-dose assessments on Day 0). Summary statistics were calculated by treatment, day and time-point. The summary statistics comprised n, mean, median, SD, standard error of mean (SEM), minimum and maximum values.
Difference from baseline data for each major variable was evaluated by an Analysis of Covariance (ANCOVA) using SAS® PROC MIXED Version 8.2.
Fixed effects for treatment, day, time point, treatment by day, treatment by time point, treatment by day by time-point were fitted. Subject within treatment was fitted as a repeated effect using the repeated statement. The compound symmetry covariance structure was used. […]

Consider `CC/C=C\C/C=C\C/C=C\C/C=C\C/C=C\CCCC(=O)OCC` [AMR101, all-cis eicosa-5,8,11,14,17-pentaenoic acid ethyl ester], for which the “Choice Reaction Time” value by setting is: (1 and 4 g ethyl-EPA on Day 42, versus placebo) “some trends for benefit”; (ethyl-EPA 1 g and 2 g on Day 28, versus placebo, no clear treatment-related pattern) “statistically significant benefits”. Moreover, the “Continuity of Attention” value by setting is: (2 g ethyl-EPA, only visible in the ITT population) “overall decrease”; (ethyl-EPA vs placebo, 6 weeks) “did not show a difference”. The “Speed of Memory and subtasks (Spatial and Numeric Working Memory Speeds, Word and Picture Recognition Speed)” value (Ethyl-EPA vs placebo, F-ratio statistics) was “no differences in performance”. For the setting “active treatment versus placebo, no obvious treatment-related pattern”, the “Digit Vigilance Targets Detected” value is listed as “isolated decreases”. Moreover, the “Self-rated Calmness” value (active treatment vs placebo) is listed as “no difference in ratings”. Moreover, the “Power of Attention” value (ethyl-EPA 1, 2, 4 g daily vs placebo, 6 weeks, ANCOVA) is on record as “no statistically significant effect of treatment”. Under “ethyl-EPA 1 g and 2 g versus placebo on Days 14 and 28, judged due to chance”, the “Quality of Working Memory” value is given as “isolated statistically significant decreases”. Also, the “Self-rated Contentment” value (ethyl-EPA 2 g on Day 28, judged unlikely treatment-related) was “statistically significant decreases in ratings”. The “Quality of Episodic Secondary Memory” value (ethyl-EPA versus placebo at various time-points, judged unlikely to be treatment effect) is given as “statistically significant decreases”. Further, the “Self-rated Alertness” value (ethyl-EPA vs placebo) was “no apparent difference in ratings”. Also, the “Reaction times in the attention tasks (Power of Attention, Simple Reaction Time, Choice Reaction Time)” value (post-hoc analysis, ethyl-EPA 4 g vs corresponding placebo) is given as “improved the subjects' reaction times”.
